Source: EP1044000B1, “COMBINATION THERAPY FOR THE TREATMENT OF AIDS” (MERCK & CO., INC., priority 1997, dated 1999)
pIC50: −log10 of the molar value. Like-named read-outs stand apart in the source and are kept apart here.

Experiments:
CYPIIIA4 = CYPIIIA4 (Homo sapiens, UniProt P08684); experiment: in vitro inhibition of CYPIIIA4; format: in vitro ADME
[1] = Pharmacokinetic study of Compound A in healthy human males (Example 10); format: in vivo; details: male, plasma, po, suspension of sulfate salt; for Tmax: mean of 6 subjects; for Cmax / AUC: mean of 6 subjects (CV %); for concentration at 8 h: plasma 8 hours after dosing, read-out: C8 hrs; for concentration at 12 h: plasma 12 hours after dosing, read-out: C12 hrs
Experimental: A double-blind, single-rising dose, alternating two-panel, four-period, placebo-controlled study was conducted for Compound A in healthy adult males in the fasted state. Single doses of 20, 50, 100, 200, 400, 800 and 1200 mg of Compound A, or placebo, were administered as an oral suspension of the sulfate salt form of Compound A in sterile water. Each subject received increasing single oral doses of Compound A or placebo during each of the four treatment periods in alternate panels. Panel A dosage levels were 20, 100, 400 mg, and 400 mg with food. Panel B dosage levels were 50, 200, 800 and 1200 mg. For each period, 6 subjects received Compound A and 2 subjects received placebo as allocated by a randomized schedule. In Panel A, subjects who received 400 mg of Compound A also received 400 mg of Compound A with food. The safety of the subjects was monitored prior and subsequent to dosing by clinical adverse event reporting, measurement of vital signs, physical examinations, blood and urine laboratory safety tests, and ECGs. […]

[2] = Pharmacokinetic study of Compound A in combination with Indinavir with and without fasting (Example 12); format: in vivo; details: male, human, plasma, 600 mg Compound A (tablets) + 666 mg IDV (Indinavir), n=7; for concentration at 8 h / concentration at 12 h / concentration at 24 h: oral; for concentration at 8 h: plasma 8 hours after dosing, read-out: C8 hrs; for concentration at 12 h: plasma 12 hours after dosing, read-out: C12 hrs; for concentration at 24 h: plasma 24 hours after dosing, read-out: C24 hrs; for Cmax / Tmax / AUC: po, single oral dose; for Cmax / Tmax: arithmetic mean; for AUC: arithmetic mean (CV %)
Experimental: All of the subjects received the regimen once in the fasted state and once with a high-fat breakfast. The two single-dose treatments (fasted, fed) were administered in randomized crossover fashion, separated by one week. For treatments with food a breakfast consisting of two eggs, two strips of bacon, toast with two pats of butter (2 x 12.5 g), 120 g of fried potatoes and 240 ml of whole milk were consumed in no more than 15 minutes, and the test medication was administered within 5 minutes after completion of the breakfast. […] All of the doses of Compound A were administered as the sulfate salt form of Compound A. All of the Compound A doses were tablets containing 200 mg of Compound A. Other ingredients in the tablets included microcrystalline cellulose (Avicel PH 101), mannitol SD 200, croscarmellose sodium, hydroxypropyl cellulose and magnesium stearate. The tablets were film coated with a suspension of hydroxypropyl methylcellulose, hydroxypropyl cellulose and titanium dioxide. The safety of the subjects was monitored prior and subsequent to dosing by clinical adverse event reporting, measurement of vital signs, physical examinations, blood and urine laboratory safety tests, and ECGs. Plasma concentrations of Compound A were determined predose and at 0.5, 1, 1.5, 2, 3, 4, 6, 8, 12, 16, 20, 24, 30, 36 and 48 hours following each single dose in each period, using a reverse-phase HPLC column switching method with fluorescence detection.

[3] = 50 mg, 50 mg single oral dose, fasted
[4] = 100 mg, 100 mg single oral dose, fasted
[5] = 200 mg, 200 mg single oral dose, fasted
[6] = 400 mg, 400 mg single oral dose, fasted
[7] = 400 mg, 400 mg single oral dose, fasted, CV not determinable
[8] = 400 mg, 400 mg w/food, single oral dose
[9] = 800 mg, 800 mg single oral dose, fasted
[10] = 800 mg, 800 mg single oral dose, fasted, mean (CV %)
[11] = 1200 mg, 1200 mg single oral dose, fasted
[12] = 1200 mg, 1200 mg single oral dose, fasted, mean (CV %)

Chain of CYPIIIA4 (P08684 whole entry): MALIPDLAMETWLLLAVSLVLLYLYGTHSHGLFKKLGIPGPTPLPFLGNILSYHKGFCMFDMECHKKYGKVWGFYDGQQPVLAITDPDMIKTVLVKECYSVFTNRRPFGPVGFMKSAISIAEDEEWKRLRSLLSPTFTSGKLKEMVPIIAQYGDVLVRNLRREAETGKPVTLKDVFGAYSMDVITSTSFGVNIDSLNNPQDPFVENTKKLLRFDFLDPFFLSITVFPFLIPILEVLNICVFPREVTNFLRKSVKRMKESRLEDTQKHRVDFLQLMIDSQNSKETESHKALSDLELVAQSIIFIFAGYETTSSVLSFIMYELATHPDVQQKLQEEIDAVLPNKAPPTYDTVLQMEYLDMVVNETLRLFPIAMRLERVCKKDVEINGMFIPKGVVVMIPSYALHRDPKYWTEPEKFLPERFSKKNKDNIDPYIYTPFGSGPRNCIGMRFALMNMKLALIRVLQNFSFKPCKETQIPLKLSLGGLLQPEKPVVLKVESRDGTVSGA

pIC50 (CYPIIIA4): 4.52
Tmax [1, 3]: 0.6 h
Cmax [1, 3]: 12 nM
Tmax [1, 4]: 0.5 h
Cmax [1, 4]: 36 nM
Tmax [1, 5]: 0.7 h
AUC [1, 5]: 0.24 µM·h
Cmax [1, 5]: 85 nM
concentration at 8 h ([1]; 200 mg, 200 mg single oral dose, fasted, CV not determinable): 5 nM
Tmax [1, 6]: 1.8 h
AUC [1, 6]: 0.66 µM·h
Cmax [1, 6]: 166 nM
concentration at 8 h [1, 7]: 15 nM
concentration at 12 h [1, 7]: 6 nM
Tmax [1, 8]: 4 h
AUC [1, 8]: 0.8 µM·h
Cmax [1, 8]: 170 nM
concentration at 8 h ([1]; 400 mg, 400 mg w/food, single oral dose, mean (CV %)): 32 nM
concentration at 12 h ([1]; 400 mg, 400 mg w/food, single oral dose, CV not determinable): 7 nM
Tmax [1, 9]: 2.6 h
AUC [1, 9]: 3.09 µM·h
Cmax [1, 9]: 568 nM
concentration at 8 h [1, 10]: 126 nM
concentration at 12 h [1, 10]: 45 nM
Tmax [1, 11]: 2.1 h
AUC [1, 11]: 7.28 µM·h
Cmax [1, 11]: 1350 nM
concentration at 8 h [1, 12]: 338 nM
concentration at 12 h [1, 12]: 128 nM
concentration at 8 h ([2]; fasted): 583 nM
concentration at 12 h ([2]; fasted): 188 nM
concentration at 24 h ([2]; fasted): 37 nM
concentration at 8 h ([2]; fed (high-fat breakfast)): 1320 nM
concentration at 12 h ([2]; fed (high-fat breakfast)): 433 nM
concentration at 24 h ([2]; fed (high-fat breakfast)): 58 nM
Cmax ([2]; fasted): 2920 nM
Tmax ([2]; fasted): 2.6 h
AUC ([2]; fasted): 15.7 µM·h
Cmax ([2]; fed (high-fat breakfast)): 4230 nM
Tmax ([2]; fed (high-fat breakfast)): 3.7 h
AUC ([2]; fed (high-fat breakfast)): 25.3 µM·h
SMILES: CC(C)(C)NC(=O)[C@@H]1CN(Cc2cc3ccccc3o2)CCN1C[C@@H](O)C[C@@H](Cc1ccccc1)C(=O)N[C@H]1c2ccccc2C[C@H]1O [Compound A, N-(2(R)-hydroxy-1(S)-indanyl)-2(R)-phenylmethyl-4-(S)-hydroxy-5-(1-(4-(2-benzo[b]furanylmethyl)-2(S)-N'-(t-butylcarboxamido)-piperazinyl))-pentaneamide]
